Reference: patent US11439637B2, “Antiproliferative compounds and bispecific antibody against BCMA and CD3 for combined use” (Celgene Corporation, priority 2018, dated 2022)
Entries after “also recorded” stand apart in the source; their conditions may differ.

Columns and labels:
[1] = test system: acute myeloid leukemia (AML); conditions: administered alone; cited from earlier work
[2] = test system: lenalidomide-resistant multiple myeloma cell line H929-1051; assay: Co-cultures of effector T cells and lenalidomide-resistant multiple myeloma target cells after pretreatment with compounds; assay type: cell-based, human; conditions: H929-1051 target cells pretreated 72 hours with Compound 2 (1 nM) or pomalidomide (100 nM), washed; co-culture 72 hours, E:T 1:3; vs DMSO
Excerpt: Co-cultures of effector T cells (E) and lenalidomide-resistant multiple myeloma target cells (T) after pretreatment with compounds. CD3+ T-cells were isolated from peripheral blood mononuclear cell fractions from three different healthy donors (donors D, E and F) using magnetic-activated cell sorting. Cells were thawed in RPMI 1640 culture media supplemented with 10% (v/v) fetal bovine serum (FBS), non-essential amino acids, sodium pyruvate and penicillin/streptomycin. All cell cultures and cell treatments were performed in a 37° C., 5% CO2 incubator for time periods as indicated. T-cells were then labeled with CFSE (carboxyfluorescein succinimidyl ester) according to the manufacturer's instructions, and allowed to recover overnight in the presence of 1 ng/mL human IL-7. The lenalidomide-resistant multiple myeloma cell line H929-1051 was generated by long-term culture in the presence of increasing concentrations of lenalidomide, as previously described (Ghandi et al. Br. J. Haematol. 2014 January; 164(2):233-44) using methods described (Lopez-Girona et al. Leukemia. 2012 November; 26(11):2326-35). H929-1051 cells were labeled with CellTrace™ Violet, then pretreated with DMSO (control), pomalidomide, or Compound 2 as a single agent for 72 hours. T-cells and target cells were then washed to remove compounds and co-cultured in the presence of increasing concentrations of the bispecific antibody specifically binding to human B cell maturation antigen (BCMA) and to human CD3ε (CD3) as provided herein, for 72 hours, at a fixed effector T-cell (E) to target cell (T) ratio of 1:3. The cells were collected at the end of co-culture for analysis of target cell apoptosis and necrosis by flow cytometry using APC Annexin V Apoptosis Detection Kit with 7-AAD, following the manufacturer's directions (BioLegend).

[3] = test system: multiple myeloma H929 cell line; assay: Co-cultures of effector T cells and target cells after pretreatment with compounds, bispecific antibody-induced target cell killing (H929); assay type: cell-based, human; conditions: H929 target cells pretreated with Compound 2 (1 nM) for 72 hours, washed; co-culture 72 hours, E:T 1:3; vs DMSO
Protocol: (§1) CD3+ T-cells were isolated from peripheral blood mononuclear cell fractions from healthy donors using magnetic-activated cell sorting. Cells were thawed in RPMI 1640 culture media supplemented with 10% (v/v) fetal bovine serum (FBS), non-essential amino acids and sodium pyruvate. All cell cultures and cell treatments were performed in a 37° C., 5% CO2 incubator for time periods as indicated. T-cells were then labeled with CFSE (carboxyfluorescein succinimidyl ester) according to the manufacturer's instructions, and allowed to recover overnight in the presence of 1 ng/mL human IL-7. T-cells were treated with DMSO (control) or Compound 2 as single agent for 16 hours before co-culture. The multiple myeloma H929 and OPM-2 cell lines or the plasma cell leukemia (PCL) cell line L363 were labeled with CellTrace™ Violet, then pretreated with DMSO (control) or Compound 2 as a single agent for 72 hours. T-cells and target cells were then washed to remove compounds and co-cultured in the presence of increasing concentrations of a bispecific antibody specifically binding to human B cell maturation antigen (BCMA) and to human CD3ε (CD3) as provided herein, for 72 hours, at different effector T-cell (E) to target cell (T) ratios. […]

[4] = test system: plasma cell leukemia (PCL) cell line L363; assay: Co-cultures of effector T cells and target cells after pretreatment with compounds, bispecific antibody-induced target cell killing (L363); assay type: cell-based, human; conditions: L363 target cells pretreated with Compound 2 (1 nM) for 72 hours, washed; co-culture 72 hours, E:T 1:1; vs DMSO
Protocol: as §1

[5] = test system: multiple myeloma OPM-2 cell line; assay: Co-cultures of effector T cells and target cells after pretreatment with compounds, cytotoxicity assays with OPM-2 cells; assay type: cell-based, human; conditions: E:T 1:5
Protocol: CD3+ T-cells were isolated from peripheral blood mononuclear cell fractions from healthy donors using magnetic-activated cell sorting. Cells were thawed in RPMI 1640 culture media supplemented with 10% (v/v) fetal bovine serum (FBS), non-essential amino acids and sodium pyruvate. All cell cultures and cell treatments were performed in a 37° C., 5% CO2 incubator for time periods as indicated. T-cells were then labeled with CFSE (carboxyfluorescein succinimidyl ester) according to the manufacturer's instructions, and allowed to recover overnight in the presence of 1 ng/mL human IL-7. T-cells were treated with DMSO (control) or Compound 2 as single agent for 16 hours before co-culture. The multiple myeloma H929 and OPM-2 cell lines or the plasma cell leukemia (PCL) cell line L363 were labeled with CellTrace™ Violet, then pretreated with DMSO (control) or Compound 2 as a single agent for 72 hours. T-cells and target cells were then washed to remove compounds and co-cultured in the presence of increasing concentrations of a bispecific antibody specifically binding to human B cell maturation antigen (BCMA) and to human CD3ε (CD3) as provided herein, for 72 hours, at different effector T-cell (E) to target cell (T) ratios. The cells were collected at the end of co-culture for analysis of target cell apoptosis and necrosis by flow cytometry using APC Annexin V Apoptosis Detection Kit with 7-AAD, following the manufacturer's directions (BioLegend).

[6] = test system: multiple myeloma H929 cell line; assay: Co-cultures of effector T cells and target cells with concurrent compound treatments; assay type: cell-based, human; conditions: concurrent exposure to Compound 2 (1 nM) for 72 hours, T-cells of three donors, E:T 1:3, vs DMSO
Protocol: CD3+ T-cells were isolated from peripheral blood mononuclear cell fractions from three different healthy donors (donors A, B and C) using magnetic-activated cell sorting. Cells were thawed in RPMI 1640 culture media supplemented with 10% (v/v) FBS, non-essential amino acids, sodium pyruvate and penicillin/streptomycin. All cell cultures and treatments were performed in a 37° C., 5% CO2 incubator for time periods as indicated. T-cells were then labeled with CFSE (carboxyfluorescein succinimidyl ester) according to the manufacturer's instructions, and allowed to recover overnight in the presence of 1 ng/mL human IL-7. The multiple myeloma H929 cell line was labeled with CellTrace™ Violet, and allowed to recover overnight. T-cells and target cells were then washed and co-cultured in the presence of increasing concentrations of bispecific antibody specifically binding to human B cell maturation antigen (BCMA) and to human CD3ε (CD3) provided herein, for 72 hours, at a fixed effector T-cell (E) to target cell (T) ratio of 1:3. Co-cultures in the presence of bispecific antibody were performed in the presence of DMSO (control) or Compound 2. Cells were collected at the end of co-culture for analysis of target cell apoptosis and necrosis by flow cytometry using APC Annexin V Apoptosis Detection Kit with 7-AAD.

[7] = combination of effector T-cell pretreatment and target cell pretreatment with Compound 2 (1 nM)
[8] = either effector T-cells (16 hours) or target cells (72 hours) alone pretreated with Compound 2 (1 nM)

Compound | response in treating acute myeloid leukemia (AML) at relapse [1] | maximal target cell killing induced by the bispecific antibody [2] | maximal target cell killing induced by the bispecific antibody [3] | potency of the bispecific antibody [3] | potency of the bispecific antibody [4] | efficacy of the bispecific antibody [5, 7] | potentiation of the bispecific antibody [5, 7] | efficacy of target cell killing by the bispecific antibody [5, 8] | potency of target cell killing by the bispecific antibody [5, 8] | maximal efficacy of target cell killing mediated by the bispecific antibody [6] | potency of the bispecific antibody [6] | potency of the bispecific antibody [2]
CT-011: anti-PD-1 antibody, a humanized antibody | failed to show response | – | – | – | – | – | – | – | – | – | – | –
Nc1cccc2c1C(=O)N(C1CCC(=O)NC1=O)C2=O (stereo not shown) [pomalidomide, reference compound] | – | not | – | – | – | – | – | – | – | – | – | –
N#Cc1ccc(N2CCN(Cc3ccc(COc4cccc5c4CN([C@H]4CCC(=O)NC4=O)C5=O)cc3)CC2)c(F)c1 [Compound 2, (S)-4-(4-(4-(((2-(2,6-dioxopiperidin-3-yl)-1-oxoisoindolin-4-yl)oxy)methyl)benzyl)piperazin-1-yl)-3-fluorobenzonitrile] | – | increased; also recorded: enhances | significantly increased | significantly increased | significantly increased | increase in efficacy | greatest potentiation | increased | increased | improved; also recorded: enhances | significantly increased; also recorded: enhances | increased; also recorded: enhances
